Like-named read-outs stand apart in the source and are kept apart here.
Assays:
HaCaT cells = experiment: Relief of 5-FU proliferative toxicity to HaCaT cells (CCK-8 cell survival); type: cell-based; settings: 5-Fu 20 μM, HaCaT cells
Method in brief: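 HaCaT keratinocytes (5000–10000/well) cultured 24 h, then exposed 48 h to 5-FU alone or with thymidine derivative, or thymidine plus uridine derivative mix, versus solvent-matched blanks. Survival by CCK-8; value is % increase in survival over 5-FU alone, t-test.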

[1] = test system: hand-foot syndrome caused by capecitabine in SD rats; experiment: Rat model of hand-foot syndrome caused by capecitabine, gel application; type: in vivo; settings: Rattus norvegicus, topical, 960 h, rats, capecitabine 4000 mg/kg once daily, 40 days; for inhibition in vivo at 1 %: gel 1 wt%; for inhibition in vivo at 5 %: gel 5 wt%; for inhibition in vivo at 3 %: gel 3 wt%
Method in brief: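 Female SD rats (~200 g, n=10/group) were given daily oral capecitabine (castor oil/ethanol 1:1, diluted with PBS). Thymidine derivative gel, alone or combined with uridine derivative, or blank gel was applied to both hind paws for ~4 h daily until blank controls developed hand-foot syndrome. Control rate was blank incidence minus treated incidence; paws were also examined by HE and IHC.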

[2] = test system: pain in capecitabine hand-foot syndrome rats; experiment: Pain of hand-foot syndrome, mechanical sensitivity in rats (von Frey); type: in vivo, rat; settings: capecitabine 4000 mg/kg hand-foot syndrome rats; thymidine derivative 3%
Description: According to the method of Examples 91-115, after administration of a thymidine derivative (at a concentration of 3%) and co-administration of a thymidine derivative (at a concentration of 1%) with a uridine derivative (at a concentration of 3%) to rat hand-foot syndrome models constructed from 4000 mg/kg of capecitabine for a period of time, pain analysis was performed on the rats, and the pain assessment model was mechanical sensitivity in rats (von Frey). The experimental steps were as follows: first, the rats were allowed to adapt in the room for 1 hour, then the rats were placed in an observation box with a metal mesh floor, and the mice were allowed to stay in the box for 20 minutes to adapt to the experimental platform. Next, a von Frey device was used to detect paw pain by stimulating the surface of the rat's palm with specially designed cilia to detect the mechanical sensitivity of the animal at strength of 0.4 g, 0.8 g, 1.5 g, 2.5 g, 4 g, 8 g, 10 g and 20 g (IITC Life Science, Woodland Hills, 2390 series). […] The rat movement response was considered to be a vague response, in which case the stimulation experiment was repeated.

[3] = read-out: Control Rate Forepaws
[4] = read-out: Control Rate Hindpaws

Structure (SMILES): Cc1ccc(C(=O)c2ccc(CC(=O)O[C@H]3C[C@H](n4cc(C)c(=O)[nH]c4=O)O[C@@H]3CO)n2C)cc1 [T45]
- Cell Survival Rate (increased percentage of cell survival compared with the Group of 5-FU) (HaCaT cells; selected compound final concentration 0.8 μM): 34%-41%
- Cell Survival Rate (increased percentage of cell survival compared with the Group of 5-FU) (HaCaT cells; selected compound final concentration 1.6 μM): 39%-46%
- Cell Survival Rate (increased percentage of cell survival compared with the Group of 5-FU) (HaCaT cells; selected compound final concentration 3.13 μM): 63%-70%
- Cell Survival Rate (increased percentage of cell survival compared with the Group of 5-FU) (HaCaT cells; selected compound final concentration 6.25 μM): 59%-67%
- Cell Survival Rate (increased percentage of cell survival compared with the Group of 5-FU) (HaCaT cells; selected compound final concentration 12.5 μM): 48%-55%
- Cell Survival Rate (increased percentage of cell survival compared with the Group of 5-FU) (HaCaT cells; selected compound final concentration 25 μM): 44%-51%
- Cell Survival Rate (increased percentage of cell survival compared with the Group of 5-FU) (HaCaT cells; selected compound final concentration 50 μM): 39%-46%
- inhibition in vivo at 1 % [1, 3]: 25%
- inhibition in vivo at 1 % [1, 4]: 37.5%
- inhibition in vivo at 5 % [1, 3]: 55.6%
- inhibition in vivo at 5 % [1, 4]: 77.8%
- pain in rats (von Frey mechanical sensitivity) [2]: could significantly improve pain in rats

Structure (SMILES): Cc1cn([C@H]2C[C@H](OC(=O)C(C)c3cccc(C(=O)c4ccccc4)c3)[C@@H](CO)O2)c(=O)[nH]c1=O (stereo partly shown) [T50]
- Cell Survival Rate (increased percentage of cell survival compared with the Group of 5-FU) (HaCaT cells; selected compound final concentration 2 μM): 13%-20%
- Cell Survival Rate (increased percentage of cell survival compared with the Group of 5-FU) (HaCaT cells; selected compound final concentration 4 μM): 26%-33%
- Cell Survival Rate (increased percentage of cell survival compared with the Group of 5-FU) (HaCaT cells; selected compound final concentration 8 μM): 36%-43%
- Cell Survival Rate (increased percentage of cell survival compared with the Group of 5-FU) (HaCaT cells; selected compound final concentration 16 μM): 47%-53%
- Cell Survival Rate (increased percentage of cell survival compared with the Group of 5-FU) (HaCaT cells; selected compound final concentration 32 μM): 68%-76%
- Cell Survival Rate (increased percentage of cell survival compared with the Group of 5-FU) (HaCaT cells; selected compound final concentration 62.5 μM): 74%-82%
- Cell Survival Rate (increased percentage of cell survival compared with the Group of 5-FU) (HaCaT cells; selected compound final concentration 125 μM): 75%-85%
- Cell Survival Rate (increased percentage of cell survival compared with the Group of 5-FU) (HaCaT cells; selected compound final concentration 250 μM): 75%-82%
- Cell Survival Rate (increased percentage of cell survival compared with the Group of 5-FU) (HaCaT cells; selected compound final concentration 500 μM): 65%-73%
- Cell Survival Rate (increased percentage of cell survival compared with the Group of 5-FU) (HaCaT cells; selected compound final concentration 1000 μM): 58%-65%
- inhibition in vivo at 3 % [1, 3]: 71.4%
- inhibition in vivo at 3 % [1, 4]: 57.1%
- pain in rats (von Frey mechanical sensitivity) [2]: could significantly improve pain in rats
